Test results: ChEMBL document CHEMBL1136486, “Novel 3,4-dihydroquinolin-2(1H)-one inhibitors of human glycogen phosphorylase a” (Bioorg Med Chem Lett, 2003)

Columns and labels:
[1] = target: T1, Glycogen phosphorylase, muscle form (Homo sapiens, UniProt P11217); assay: Inhibitory concentration against recombinant human muscle glycogen phosphorylase a (HMGPa); type: single protein
T1 sequence (P11217 whole entry): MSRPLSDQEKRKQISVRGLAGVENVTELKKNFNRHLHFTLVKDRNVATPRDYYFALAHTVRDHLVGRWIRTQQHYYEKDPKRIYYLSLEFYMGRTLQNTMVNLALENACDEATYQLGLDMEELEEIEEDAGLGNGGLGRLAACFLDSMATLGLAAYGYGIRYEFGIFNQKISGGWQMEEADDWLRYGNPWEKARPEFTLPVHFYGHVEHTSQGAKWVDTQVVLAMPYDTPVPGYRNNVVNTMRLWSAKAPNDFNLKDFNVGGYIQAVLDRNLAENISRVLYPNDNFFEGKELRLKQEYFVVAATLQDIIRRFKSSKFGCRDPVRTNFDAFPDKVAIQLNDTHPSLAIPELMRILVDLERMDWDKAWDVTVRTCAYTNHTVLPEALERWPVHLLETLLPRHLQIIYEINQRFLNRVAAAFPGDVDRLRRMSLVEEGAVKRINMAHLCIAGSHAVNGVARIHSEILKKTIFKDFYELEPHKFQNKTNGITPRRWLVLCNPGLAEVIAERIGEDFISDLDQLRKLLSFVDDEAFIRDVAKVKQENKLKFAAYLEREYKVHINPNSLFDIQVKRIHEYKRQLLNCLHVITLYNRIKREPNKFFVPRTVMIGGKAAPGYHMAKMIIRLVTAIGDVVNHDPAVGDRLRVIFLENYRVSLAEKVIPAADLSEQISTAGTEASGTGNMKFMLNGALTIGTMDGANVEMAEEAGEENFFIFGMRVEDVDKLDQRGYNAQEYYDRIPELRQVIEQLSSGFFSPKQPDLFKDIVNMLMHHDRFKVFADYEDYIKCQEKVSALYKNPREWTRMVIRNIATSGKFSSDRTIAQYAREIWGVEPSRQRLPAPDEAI

[2] = target: T2, Glycogen phosphorylase, liver form (Homo sapiens, UniProt P06737); assay: Inhibitory concentration against recombinant human liver glycogen phosphorylase a (HLGPa)
T2 sequence (P06737 whole entry): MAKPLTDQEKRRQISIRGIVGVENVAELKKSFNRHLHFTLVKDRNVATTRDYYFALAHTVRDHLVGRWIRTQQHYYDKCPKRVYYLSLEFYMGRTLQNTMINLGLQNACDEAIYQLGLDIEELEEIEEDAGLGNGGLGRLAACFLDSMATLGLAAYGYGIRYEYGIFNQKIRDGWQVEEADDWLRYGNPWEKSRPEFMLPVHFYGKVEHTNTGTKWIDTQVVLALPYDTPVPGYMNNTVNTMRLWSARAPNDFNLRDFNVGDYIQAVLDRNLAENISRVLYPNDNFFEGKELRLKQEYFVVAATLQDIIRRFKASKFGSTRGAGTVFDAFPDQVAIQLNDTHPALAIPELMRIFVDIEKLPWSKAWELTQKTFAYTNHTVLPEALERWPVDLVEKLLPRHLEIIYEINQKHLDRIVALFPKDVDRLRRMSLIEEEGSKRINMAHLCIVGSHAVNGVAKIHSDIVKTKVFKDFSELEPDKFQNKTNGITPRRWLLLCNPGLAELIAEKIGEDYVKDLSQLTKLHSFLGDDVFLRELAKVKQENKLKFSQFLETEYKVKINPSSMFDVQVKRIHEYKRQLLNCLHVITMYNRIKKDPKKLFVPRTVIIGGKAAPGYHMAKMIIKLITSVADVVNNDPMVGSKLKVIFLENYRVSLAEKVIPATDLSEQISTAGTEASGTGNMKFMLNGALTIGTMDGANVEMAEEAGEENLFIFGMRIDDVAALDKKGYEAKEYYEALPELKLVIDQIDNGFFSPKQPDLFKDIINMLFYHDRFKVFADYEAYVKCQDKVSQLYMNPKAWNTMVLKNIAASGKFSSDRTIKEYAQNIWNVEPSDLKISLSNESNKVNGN

[3] = species: Rattus norvegicus; assay: Inhibition of glucose production in glucagon-stimulated glycogenolysis in primary rat hepatocytes; type: functional; settings: Hepatocyte

Compound | IC50 [1] [nM] | IC50 [2] [nM] | EC50 [3] [nM]
O=C(N[C@@H]1Cc2ccccc2N(Cc2ccccn2)C1=O)c1cc2cc(Cl)ccc2[nH]1 |  | 120 | 14500
Cc1n[nH]c(CN2C(=O)C(NC(=O)c3cc4cc(Cl)ccc4[nH]3)Cc3ccccc32)n1 (racemic) |  | 140 | 1200
CN1C(=O)C(NC(=O)c2cc3cc(Cl)ccc3[nH]2)CCc2ccccc21 (configuration not stated) | 105 | 305 | 
COC(=O)c1cc2[nH]c(C(=O)NC3Cc4ccccc4N(C)C3=O)cc2cc1Cl (configuration not stated) | > 20000 | > 20000 | 
CN1C(=O)C(NC(=O)c2cc3cc(Br)ccc3[nH]2)Cc2ccccc21 (configuration not stated) | 73 | 30 | 
CCc1ccc2[nH]c(C(=O)NC3Cc4ccccc4N(C)C3=O)cc2c1 (configuration not stated) | 850 | 2500 | 
O=C(NC1Cc2ccccc2NC1=O)c1cc2cc(Cl)ccc2[nH]1 (racemic) | 38 | 44 | 
CN1C(=O)C(NC(=O)c2cc3cc(-c4ccccc4)ccc3[nH]2)Cc2ccccc21 (configuration not stated) | > 20000 | > 20000 | 
O=C(N[C@@H]1Cc2ccccc2NC1=O)c1cc2cc(Cl)ccc2[nH]1 | 14 | 25 | 1800
O=C(NC1Cc2ccccc2N(Cc2nnc(-c3ncc[nH]3)[nH]2)C1=O)c1cc2cc(Cl)ccc2[nH]1 (racemic) |  | 160 | 3700
CN1C(=O)C(NC(=O)c2cc3cc(Cl)cc(F)c3[nH]2)Cc2ccccc21 (configuration not stated) | 55 | 83 | 
O=C(NC1Cc2ccccc2N(Cc2cccnc2)C1=O)c1cc2cc(Cl)ccc2[nH]1 (racemic) |  | 130 | 16600
O=C(NC1Cc2ccccc2N(Cc2ccccn2)C1=O)c1cc2cc(Cl)ccc2[nH]1 (racemic) |  | 110 | 20700
O=C(N[C@H]1Cc2ccccc2N(Cc2ccccn2)C1=O)c1cc2cc(Cl)ccc2[nH]1 |  | 140 | 11600
CN1C(=O)C(NC(=O)c2cc3ccc(Cl)cc3[nH]2)Cc2ccccc21 (configuration not stated) | 69 | 99 | 
COC(=O)c1c(Cl)ccc2[nH]c(C(=O)NC3Cc4ccccc4N(C)C3=O)cc12 (configuration not stated) | > 20000 | > 20000 | 
CN1C(=O)C(NC(=O)c2cc3cc(C(F)(F)F)ccc3[nH]2)Cc2ccccc21 (configuration not stated) | 550 | 1500 | 
O=C(NC1Cc2ccccc2NC1=O)c1ccc(Cl)c(Cl)c1 (configuration not stated) | 2310 | 1370 | 
CN1C(=O)C(NC(=O)c2cc3cccc([N+](=O)[O-])c3[nH]2)Cc2ccccc21 (configuration not stated) | 120 | 300 | 
CN1C(=O)C(NC(=O)c2cc3ccc(-c4ccccc4)cc3[nH]2)Cc2ccccc21 (configuration not stated) | > 20000 | > 20000 | 
O=C(NC1CCc2ccccc2NC1=O)c1ccc(Cl)c(Cl)c1 (racemic) | 21700 | 6400 | 
O=C(N[C@H]1Cc2ccccc2NC1=O)c1cc2cc(Cl)ccc2[nH]1 | 39 | 47 | 7800
O=C(NC1CCc2ccccc2NC1=O)c1cc2ccccc2[nH]1 (configuration not stated) | 2440 | 1060 | 

Continued, in another order:

IC50 [1] [nM] | IC50 [2] [nM] | Compound | EC50 [3] [nM]
98 | 120 | Cc1ccc2[nH]c(C(=O)NC3Cc4ccccc4N(C)C3=O)cc2c1 (configuration not stated) | 
6800 | 1200 | CN1C(=O)C(NC(=O)c2cc3cccc(N)c3[nH]2)Cc2ccccc21 (configuration not stated) | 
57 | 57 | CN1C(=O)[C@@H](NC(=O)c2cc3cc(Cl)ccc3[nH]2)Cc2ccccc21 | 8400
89 | 120 | CN1C(=O)C(NC(=O)c2cc3cc(F)ccc3[nH]2)Cc2ccccc21 (configuration not stated) | 
1700 | 1700 | COc1ccc2[nH]c(C(=O)NC3Cc4ccccc4N(C)C3=O)cc2c1 (configuration not stated) | 
58 | 61 | CN1C(=O)[C@H](NC(=O)c2cc3cc(Cl)ccc3[nH]2)Cc2ccccc21 | 13200
56 | 160 | CN1C(=O)C(NC(=O)c2cc3ccccc3[nH]2)Cc2ccccc21 (configuration not stated) | 
32 | 25 | CN1C(=O)C(NC(=O)c2cc3cc(Cl)ccc3[nH]2)Cc2ccccc21 (racemic) | 
110 | 180 | CN1C(=O)C(NC(=O)c2cc3cc(C#N)ccc3[nH]2)Cc2ccccc21 (configuration not stated) | 
2100 | 1600 | CN1C(=O)C(NC(=O)c2cc3c(Cl)cccc3[nH]2)Cc2ccccc21 (configuration not stated) | 
2700 | 5300 | COC(=O)c1ccc2[nH]c(C(=O)NC3Cc4ccccc4N(C)C3=O)cc2c1 (configuration not stated) | 
